Laboratory results: patent US20050119253A1, “Method of treating mental disorders using of D4 and 5-HT2A antagonists, inverse agonists or partial agonists” (priority 2003, published 2005)
Like-named read-outs stand apart in the source and are kept apart here.

Assays:
Assay type in all cases: binding
5HT6rat = 5HT6rat (Rattus norvegicus, UniProt P31388); test: pKi of test compounds, 5HT6 receptor
Beta2 = Beta2 (Homo sapiens, UniProt P07550); test: pKi of test compounds, adrenergic receptor Beta2
5HT2B = 5HT2B (Homo sapiens, UniProt P41595); test: pKi of test compounds, 5HT2B receptor
5HT1B = 5HT1B (Homo sapiens, UniProt P28222); test: pKi of test compounds, 5HT1B receptor
Chain of 5HT1B (P28222 whole entry, species assumed): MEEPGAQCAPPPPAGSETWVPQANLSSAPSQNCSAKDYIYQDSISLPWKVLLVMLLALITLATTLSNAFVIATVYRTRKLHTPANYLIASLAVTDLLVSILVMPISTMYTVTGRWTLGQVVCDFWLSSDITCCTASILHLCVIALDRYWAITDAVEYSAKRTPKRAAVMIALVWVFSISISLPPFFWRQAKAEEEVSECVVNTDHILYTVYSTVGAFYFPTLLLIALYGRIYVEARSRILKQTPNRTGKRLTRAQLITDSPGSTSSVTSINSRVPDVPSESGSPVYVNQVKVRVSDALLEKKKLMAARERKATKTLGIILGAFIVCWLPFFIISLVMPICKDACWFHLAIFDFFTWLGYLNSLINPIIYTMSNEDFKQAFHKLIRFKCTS

Beta1 = Beta1 (Homo sapiens, UniProt P08588); test: pKi of test compounds, adrenergic receptor Beta1
Chain of Beta1 (P08588 whole entry): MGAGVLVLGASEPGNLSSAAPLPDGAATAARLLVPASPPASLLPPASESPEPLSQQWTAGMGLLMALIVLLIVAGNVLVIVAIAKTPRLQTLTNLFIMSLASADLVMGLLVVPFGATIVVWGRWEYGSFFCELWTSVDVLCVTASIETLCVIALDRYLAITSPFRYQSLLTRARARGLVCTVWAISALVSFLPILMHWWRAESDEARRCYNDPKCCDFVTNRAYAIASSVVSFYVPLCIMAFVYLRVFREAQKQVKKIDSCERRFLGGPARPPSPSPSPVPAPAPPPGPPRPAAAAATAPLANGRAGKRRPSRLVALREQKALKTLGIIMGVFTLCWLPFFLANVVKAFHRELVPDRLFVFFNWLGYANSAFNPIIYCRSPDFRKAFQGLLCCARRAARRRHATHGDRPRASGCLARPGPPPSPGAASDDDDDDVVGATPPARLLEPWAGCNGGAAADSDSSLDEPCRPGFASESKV

5HT1E = 5HT1E (Homo sapiens, UniProt P28566); test: pKi of test compounds, 5HT1E receptor
Chain of 5HT1E (P28566 whole entry, species assumed): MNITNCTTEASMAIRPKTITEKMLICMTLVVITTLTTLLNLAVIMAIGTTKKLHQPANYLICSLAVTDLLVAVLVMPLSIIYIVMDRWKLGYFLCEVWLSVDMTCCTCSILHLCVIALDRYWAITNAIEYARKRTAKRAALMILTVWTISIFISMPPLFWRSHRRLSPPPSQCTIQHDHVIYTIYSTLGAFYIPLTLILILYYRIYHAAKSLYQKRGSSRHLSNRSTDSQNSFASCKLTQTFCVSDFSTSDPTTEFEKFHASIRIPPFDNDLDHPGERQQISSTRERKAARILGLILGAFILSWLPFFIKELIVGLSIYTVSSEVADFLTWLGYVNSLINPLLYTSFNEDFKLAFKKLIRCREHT

5HT1D = 5HT1D (Homo sapiens, UniProt P28221); test: pKi of test compounds, 5HT1D receptor; settings: for Ki: read-out: pKi 5HT1D (converted)
Chain of 5HT1D (P28221 whole entry, species assumed): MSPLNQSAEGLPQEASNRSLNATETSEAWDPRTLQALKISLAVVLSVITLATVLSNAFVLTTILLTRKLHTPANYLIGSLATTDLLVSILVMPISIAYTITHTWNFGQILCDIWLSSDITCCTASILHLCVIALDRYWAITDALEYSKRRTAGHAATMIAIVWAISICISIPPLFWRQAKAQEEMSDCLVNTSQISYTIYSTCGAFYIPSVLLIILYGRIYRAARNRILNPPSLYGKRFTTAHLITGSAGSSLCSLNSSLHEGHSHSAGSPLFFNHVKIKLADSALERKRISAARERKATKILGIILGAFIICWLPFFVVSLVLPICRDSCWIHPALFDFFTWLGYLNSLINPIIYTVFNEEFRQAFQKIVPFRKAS

5HT7rat = 5HT7rat (Rattus norvegicus, UniProt P32305); test: pKi of test compounds, 5HT7 receptor
Chain of 5HT7rat (P32305 whole entry): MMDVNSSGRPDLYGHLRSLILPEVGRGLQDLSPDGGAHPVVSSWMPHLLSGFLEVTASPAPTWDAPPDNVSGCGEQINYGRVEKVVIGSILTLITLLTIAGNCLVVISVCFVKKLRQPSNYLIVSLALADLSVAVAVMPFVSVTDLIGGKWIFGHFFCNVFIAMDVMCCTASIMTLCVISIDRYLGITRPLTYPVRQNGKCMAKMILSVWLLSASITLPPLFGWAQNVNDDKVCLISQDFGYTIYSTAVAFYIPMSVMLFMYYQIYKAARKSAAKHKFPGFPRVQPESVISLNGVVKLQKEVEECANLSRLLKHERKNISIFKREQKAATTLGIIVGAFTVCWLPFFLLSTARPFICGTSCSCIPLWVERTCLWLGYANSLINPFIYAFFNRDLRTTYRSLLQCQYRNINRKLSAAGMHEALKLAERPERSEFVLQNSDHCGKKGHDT

5HT1A = biological target: T1, 5HT1A (Homo sapiens, UniProt P08908); test: pKi of test compounds, 5HT1A receptor
T1 sequence (P08908 1-422): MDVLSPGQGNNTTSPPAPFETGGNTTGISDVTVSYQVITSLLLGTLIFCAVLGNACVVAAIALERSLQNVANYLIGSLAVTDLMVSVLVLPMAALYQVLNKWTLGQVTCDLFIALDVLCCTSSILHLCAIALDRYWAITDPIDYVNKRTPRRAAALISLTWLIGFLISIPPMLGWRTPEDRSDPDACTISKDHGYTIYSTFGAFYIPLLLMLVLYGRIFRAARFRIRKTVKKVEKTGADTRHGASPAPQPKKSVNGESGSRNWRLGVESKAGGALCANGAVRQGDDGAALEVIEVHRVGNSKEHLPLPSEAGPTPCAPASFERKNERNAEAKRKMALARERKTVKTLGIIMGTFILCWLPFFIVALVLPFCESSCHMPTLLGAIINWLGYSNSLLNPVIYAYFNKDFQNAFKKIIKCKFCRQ

D1 = D1 (Homo sapiens, UniProt P21728); test: pKi of test compounds, D1 receptor
Chain of D1 (P21728 whole entry): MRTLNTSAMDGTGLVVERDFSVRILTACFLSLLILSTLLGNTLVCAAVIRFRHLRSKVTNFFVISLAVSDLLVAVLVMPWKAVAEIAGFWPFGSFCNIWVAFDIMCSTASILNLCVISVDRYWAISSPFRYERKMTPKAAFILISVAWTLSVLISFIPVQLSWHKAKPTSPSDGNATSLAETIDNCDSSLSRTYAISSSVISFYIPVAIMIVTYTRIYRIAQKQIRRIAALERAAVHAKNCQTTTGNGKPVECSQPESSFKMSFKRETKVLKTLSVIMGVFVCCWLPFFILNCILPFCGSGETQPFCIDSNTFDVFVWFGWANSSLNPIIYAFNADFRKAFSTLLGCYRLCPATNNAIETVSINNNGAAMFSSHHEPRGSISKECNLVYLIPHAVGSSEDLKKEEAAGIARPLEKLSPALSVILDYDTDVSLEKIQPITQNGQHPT

D3 = D3 (Homo sapiens, UniProt P35462); test: pKi of test compounds, D3 receptor; settings: for Ki: read-out: pKi D3 (converted)
Chain of D3 (P35462 whole entry): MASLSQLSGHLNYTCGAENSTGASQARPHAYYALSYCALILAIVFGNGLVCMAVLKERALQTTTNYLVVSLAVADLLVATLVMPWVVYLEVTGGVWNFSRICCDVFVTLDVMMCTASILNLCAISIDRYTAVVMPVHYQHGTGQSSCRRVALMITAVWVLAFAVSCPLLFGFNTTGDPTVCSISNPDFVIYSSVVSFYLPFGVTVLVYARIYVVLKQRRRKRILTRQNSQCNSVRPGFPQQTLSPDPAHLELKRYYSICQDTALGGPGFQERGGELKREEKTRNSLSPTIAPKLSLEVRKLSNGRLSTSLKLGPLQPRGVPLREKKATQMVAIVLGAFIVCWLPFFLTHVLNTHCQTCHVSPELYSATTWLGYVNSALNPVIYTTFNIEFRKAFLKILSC

Alpha1A = biological target: T2, Alpha1A (Homo sapiens, UniProt P35348); test: pKi of test compounds, adrenergic receptor Alpha1A
T2 sequence (P35348 1-466): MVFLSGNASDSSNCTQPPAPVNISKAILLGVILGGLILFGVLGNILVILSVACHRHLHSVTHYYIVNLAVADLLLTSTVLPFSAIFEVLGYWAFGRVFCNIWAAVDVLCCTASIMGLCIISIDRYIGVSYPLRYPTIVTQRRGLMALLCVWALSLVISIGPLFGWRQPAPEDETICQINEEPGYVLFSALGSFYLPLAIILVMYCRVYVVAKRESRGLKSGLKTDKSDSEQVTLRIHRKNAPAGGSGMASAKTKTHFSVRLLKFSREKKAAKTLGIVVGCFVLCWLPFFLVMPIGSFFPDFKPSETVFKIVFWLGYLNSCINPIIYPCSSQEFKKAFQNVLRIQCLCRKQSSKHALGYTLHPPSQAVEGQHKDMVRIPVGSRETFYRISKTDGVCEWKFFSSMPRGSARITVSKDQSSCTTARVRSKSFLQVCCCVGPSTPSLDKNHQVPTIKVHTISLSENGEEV

5HT2C = biological target: T3, 5HT2C (Homo sapiens, UniProt P28335); test: pKi of test compounds, 5HT2C receptor
T3 sequence (P28335 33-458): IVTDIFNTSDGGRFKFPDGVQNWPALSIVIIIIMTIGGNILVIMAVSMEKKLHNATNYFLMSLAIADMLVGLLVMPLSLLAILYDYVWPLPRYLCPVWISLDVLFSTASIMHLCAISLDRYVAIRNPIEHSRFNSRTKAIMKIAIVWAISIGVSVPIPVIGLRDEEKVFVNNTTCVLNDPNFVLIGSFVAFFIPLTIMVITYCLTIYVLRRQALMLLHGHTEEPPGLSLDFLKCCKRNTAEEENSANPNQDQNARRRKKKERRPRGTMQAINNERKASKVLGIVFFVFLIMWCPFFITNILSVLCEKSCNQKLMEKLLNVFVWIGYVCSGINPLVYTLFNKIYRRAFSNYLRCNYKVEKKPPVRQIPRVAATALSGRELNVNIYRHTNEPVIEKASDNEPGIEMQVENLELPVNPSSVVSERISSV

5-HT2A receptor = 5-HT2A receptor (Homo sapiens, UniProt P28223); test: pKi of test compounds, 5-HT2A receptor
Chain of 5-HT2A receptor (P28223 whole entry): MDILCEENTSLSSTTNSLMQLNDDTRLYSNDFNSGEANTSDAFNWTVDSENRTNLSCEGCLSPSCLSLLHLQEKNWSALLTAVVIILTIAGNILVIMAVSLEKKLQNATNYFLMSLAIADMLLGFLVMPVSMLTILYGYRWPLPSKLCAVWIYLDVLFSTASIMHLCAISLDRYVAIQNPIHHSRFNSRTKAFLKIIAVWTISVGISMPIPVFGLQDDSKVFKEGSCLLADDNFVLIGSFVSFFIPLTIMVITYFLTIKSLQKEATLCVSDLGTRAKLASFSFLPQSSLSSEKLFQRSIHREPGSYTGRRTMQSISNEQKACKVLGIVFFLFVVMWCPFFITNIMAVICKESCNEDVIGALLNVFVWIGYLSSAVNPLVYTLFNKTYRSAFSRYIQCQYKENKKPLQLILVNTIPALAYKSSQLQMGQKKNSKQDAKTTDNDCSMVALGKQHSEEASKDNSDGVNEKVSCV

D2 = D2 (Homo sapiens, UniProt P14416); test: pKi of test compounds, D2 receptor; settings: for Ki: read-out: pKi D2 (converted)
Chain of D2 (P14416 whole entry): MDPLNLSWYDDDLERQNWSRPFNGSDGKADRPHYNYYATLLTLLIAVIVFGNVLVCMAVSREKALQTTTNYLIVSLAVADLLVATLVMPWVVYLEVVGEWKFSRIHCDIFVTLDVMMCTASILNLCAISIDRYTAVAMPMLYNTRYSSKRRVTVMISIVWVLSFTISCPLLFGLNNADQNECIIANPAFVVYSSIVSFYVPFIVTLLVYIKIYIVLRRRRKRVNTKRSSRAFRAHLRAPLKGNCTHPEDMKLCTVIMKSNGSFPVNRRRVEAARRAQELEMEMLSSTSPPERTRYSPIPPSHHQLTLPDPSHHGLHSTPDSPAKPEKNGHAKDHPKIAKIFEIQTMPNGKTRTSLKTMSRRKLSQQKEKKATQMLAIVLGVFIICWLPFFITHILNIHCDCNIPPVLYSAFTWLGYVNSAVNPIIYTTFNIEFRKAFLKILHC

D4 receptor = biological target: T4, D4 receptor (Homo sapiens, UniProt P21917); test: pKi of test compounds, D4 receptor; settings: D4; read-out: pKi D4 (converted)
T4 sequence (P21917 1-419): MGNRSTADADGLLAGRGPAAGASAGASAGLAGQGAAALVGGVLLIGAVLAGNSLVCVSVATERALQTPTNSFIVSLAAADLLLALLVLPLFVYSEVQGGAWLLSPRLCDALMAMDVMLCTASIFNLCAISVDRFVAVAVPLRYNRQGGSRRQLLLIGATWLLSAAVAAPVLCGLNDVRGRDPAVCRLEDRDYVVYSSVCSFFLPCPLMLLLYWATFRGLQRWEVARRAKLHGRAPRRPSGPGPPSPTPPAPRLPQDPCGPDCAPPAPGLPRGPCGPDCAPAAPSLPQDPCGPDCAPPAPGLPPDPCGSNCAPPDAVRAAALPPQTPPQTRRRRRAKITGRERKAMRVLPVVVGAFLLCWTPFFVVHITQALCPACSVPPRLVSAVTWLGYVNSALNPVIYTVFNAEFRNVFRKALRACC

Alpha2B = Alpha2B (Homo sapiens, UniProt P18089); test: pKi of test compounds, adrenergic receptor Alpha2B
Alpha2A = biological target: T5, Alpha2A (Homo sapiens, UniProt P08913); test: pKi of test compounds, adrenergic receptor Alpha2A
T5 sequence (P08913 1-465): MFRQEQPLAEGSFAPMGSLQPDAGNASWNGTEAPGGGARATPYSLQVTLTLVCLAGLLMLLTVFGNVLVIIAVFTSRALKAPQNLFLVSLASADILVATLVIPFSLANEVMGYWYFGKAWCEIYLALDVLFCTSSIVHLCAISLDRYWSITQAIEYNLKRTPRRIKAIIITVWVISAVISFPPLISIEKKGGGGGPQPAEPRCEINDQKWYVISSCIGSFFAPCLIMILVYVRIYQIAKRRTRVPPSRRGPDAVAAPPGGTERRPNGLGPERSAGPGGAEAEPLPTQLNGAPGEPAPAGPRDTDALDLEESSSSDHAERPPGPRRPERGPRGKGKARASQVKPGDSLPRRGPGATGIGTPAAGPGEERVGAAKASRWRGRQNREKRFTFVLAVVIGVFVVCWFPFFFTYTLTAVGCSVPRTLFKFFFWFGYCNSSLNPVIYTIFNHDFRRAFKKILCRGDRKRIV

Alpha2C = biological target: T6, Alpha2C (Homo sapiens, UniProt P18825); test: pKi of test compounds, adrenergic receptor Alpha2C
T6 sequence (P18825 1-462): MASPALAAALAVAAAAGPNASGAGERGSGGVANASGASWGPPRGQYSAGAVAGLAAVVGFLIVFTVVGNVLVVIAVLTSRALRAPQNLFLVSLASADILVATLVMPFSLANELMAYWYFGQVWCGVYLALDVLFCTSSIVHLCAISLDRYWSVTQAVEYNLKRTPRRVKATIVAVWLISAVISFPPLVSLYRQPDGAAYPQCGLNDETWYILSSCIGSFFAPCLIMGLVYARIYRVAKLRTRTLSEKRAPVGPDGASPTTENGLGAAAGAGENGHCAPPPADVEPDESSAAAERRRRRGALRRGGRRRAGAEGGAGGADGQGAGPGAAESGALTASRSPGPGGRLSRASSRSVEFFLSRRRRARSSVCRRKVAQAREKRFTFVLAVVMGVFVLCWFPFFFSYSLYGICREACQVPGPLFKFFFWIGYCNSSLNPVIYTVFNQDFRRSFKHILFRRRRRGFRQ

5HT1F = 5HT1F (Homo sapiens, UniProt P30939); test: pKi of test compounds, 5HT1F receptor

Chain of Beta2 (P07550 whole entry): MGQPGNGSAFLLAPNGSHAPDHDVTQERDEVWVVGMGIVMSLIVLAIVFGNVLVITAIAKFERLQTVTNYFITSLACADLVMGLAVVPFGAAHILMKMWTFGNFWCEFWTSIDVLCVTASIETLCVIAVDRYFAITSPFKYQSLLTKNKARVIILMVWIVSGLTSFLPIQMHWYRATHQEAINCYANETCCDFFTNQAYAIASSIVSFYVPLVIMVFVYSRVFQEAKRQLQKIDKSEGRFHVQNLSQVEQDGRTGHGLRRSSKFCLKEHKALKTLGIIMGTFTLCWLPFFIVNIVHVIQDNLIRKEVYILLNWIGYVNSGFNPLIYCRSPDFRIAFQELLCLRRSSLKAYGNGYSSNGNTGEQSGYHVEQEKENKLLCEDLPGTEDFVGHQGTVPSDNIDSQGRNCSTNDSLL
Chain of 5HT6rat (P31388 whole entry): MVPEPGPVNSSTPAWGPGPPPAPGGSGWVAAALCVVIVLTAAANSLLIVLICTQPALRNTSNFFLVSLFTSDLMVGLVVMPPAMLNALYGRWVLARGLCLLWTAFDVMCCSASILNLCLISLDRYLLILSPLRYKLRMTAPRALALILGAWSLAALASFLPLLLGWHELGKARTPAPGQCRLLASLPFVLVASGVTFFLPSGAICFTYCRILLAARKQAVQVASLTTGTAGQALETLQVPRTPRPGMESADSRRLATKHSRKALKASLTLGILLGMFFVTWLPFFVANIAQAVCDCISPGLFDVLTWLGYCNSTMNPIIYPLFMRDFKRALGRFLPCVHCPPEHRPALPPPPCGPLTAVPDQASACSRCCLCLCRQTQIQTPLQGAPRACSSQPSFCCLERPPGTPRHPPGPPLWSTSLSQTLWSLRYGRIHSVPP

| Ki (D1) [nM] | Ki (D3) [nM] | Ki (Alpha1A) [nM] | Ki (5HT2C) [nM] | Ki (5-HT2A receptor) [nM] | Ki (D2) [nM] | SMILES | Ki (5HT1B) [nM] | Ki (5HT1E) [nM] | Ki (5HT1D) [nM] | Ki (5HT1A) [nM] | Ki (D4 receptor) [nM] | also measured |
| --- | --- | --- | --- | --- | --- | --- | --- | --- | --- | --- | --- | --- |
|  |  |  |  |  |  | O=C1Cc2cc(CCN3CCN(c4nsc5ccccc45)CC3)c(Cl)cc2N1 [Ziprasidone] | < 1 | 100 to 1000 | 1 to 10 | 1 to 10 |  | Ki (5HT6rat): 10 to 100 nM; Ki (Beta2): > 1000 nM; Ki (5HT2B): 1 to 10 nM; Ki (Beta1): > 1000 nM; Ki (5HT7rat): 1 to 10 nM |
| 10 to 100 | 1 to 10 | < 1 | 10 to 100 | < 1 | < 1 | Cc1nc2c(C)cccn2c(=O)c1CCN1CCC(c2noc3cc(F)ccc23)CC1 [Ocaperidone] |  |  |  | 10 to 100 | 1 to 10 |  |
|  |  |  |  |  |  | O=C(CC1CCN(CCOc2cccc3c2OCCO3)C1)c1ccc(F)cc1 (stereo not shown) [S16924] |  |  |  |  |  | pKi 5HT6rat (5HT6rat; rat): 7-8; pKi Beta2 (Beta2): <6; pKi Alpha2B (Alpha2B): 7-8; pKi D3 (D3): 7-8; pKi 5HT2B (5HT2B): 8-9; pKi Alpha1A (Alpha1A): 8-9; pKi Beta1 (Beta1): <6; pKi Alpha2A (Alpha2A): 6-7; pKi 5HT2C (5HT2C): 7-8; pKi Alpha2C (Alpha2C): 6-7; pKi 5HT7rat (5HT7rat): 7-8; pKi 5-HT2A (5-HT2A receptor): >9; pKi D2 (D2): 7-8; pKi 5HT1A (5HT1A): 8-9 |
|  |  |  |  |  |  | CN1CCN(C2=Nc3cc(Cl)ccc3Nc3ccccc32)CC1 [Clozapine] |  |  |  |  |  | Ki (5HT1F): 100 to 1000 nM |
|  |  |  |  |  |  | OC1(c2ccc(Cl)cc2)CCN(Cc2c[nH]c3ccccc23)CC1 [L741626] |  |  |  |  |  | pKi D3 (D3): 7-8; pKi 5HT2B (5HT2B): 6-7; pKi 5HT1B (5HT1B): <6; pKi Alpha2A (Alpha2A): <6; pKi 5HT1D (5HT1D): <6 |
|  |  |  |  |  |  | OCCOCCN1CCN(C2=Nc3ccccc3Sc3ccccc32)CC1 [Seroquel] |  | > 1000 |  |  |  |  |
| 100 to 1000 | 100 to 1000 | 10 to 100 | > 1000 | 1 to 10 | 100 to 1000 | CCNC(=O)N1CCN(CCCC(c2ccc(F)cc2)c2ccc(F)cc2)CC1 [Amperozide] |  |  |  | > 1000 |  | Ki (Alpha2A): > 1000 nM |

| SMILES | Ki (D1) [nM] | Ki (D3) [nM] | Ki (Alpha1A) [nM] | Ki (5HT2C) [nM] | Ki (5-HT2A receptor) [nM] | Ki (D2) [nM] | Ki (5HT1B) [nM] | Ki (5HT1E) [nM] | Ki (5HT1D) [nM] | Ki (5HT1A) [nM] | Ki (D4 receptor) [nM] | also measured |
| --- | --- | --- | --- | --- | --- | --- | --- | --- | --- | --- | --- | --- |
| CN1CC2c3ccccc3Oc3ccc(Cl)cc3C2C1 (stereo not shown) [ORG5222] | 1 to 10 | 1 to 10 | < 1 | < 1 | < 1 |  | 1 to 10 | 10 to 100 | 1 to 10 | 1 to 10 | 1 to 10 | Ki (5HT6rat; rat, read-out: pKi 5HT6rat (converted)): < 1 nM; Ki (Beta2): > 1000 nM; Ki (Beta1): > 1000 nM; Ki (Alpha2A): 1 to 10 nM; Ki (Alpha2C): 10 to 100 nM; Ki (5HT7rat): < 1 nM |
| O=C1NCN(c2ccccc2)C12CCN(CCCC(c1ccc(F)cc1)c1ccc(F)cc1)CC2 [Fluspirilene] |  |  |  |  |  | < 1 | > 1000 | > 1000 | > 1000 |  | 1 to 10 |  |
